Reference: ChEMBL document CHEMBL1136643, “Identification of a novel series of selective 5-HT7 receptor antagonists” (Bioorg Med Chem Lett, 2003)

Experiments:
[1] = target: 5-hydroxytryptamine receptor 2A (Homo sapiens, UniProt P28223); experiment: Binding affinity at human cloned 5-hydroxytryptamine 2A receptor.
[2] = target: 5-hydroxytryptamine receptor 7 (Homo sapiens, UniProt P34969); experiment: Binding affinity at human cloned 5-hydroxytryptamine 7 receptor.
[3] = target: 5-hydroxytryptamine receptor 1D (Homo sapiens, UniProt P28221); experiment: Binding affinity towards cloned human 5-hydroxytryptamine 1D receptor
5-hydroxytryptamine receptor 1D, sequence (P28221 whole entry): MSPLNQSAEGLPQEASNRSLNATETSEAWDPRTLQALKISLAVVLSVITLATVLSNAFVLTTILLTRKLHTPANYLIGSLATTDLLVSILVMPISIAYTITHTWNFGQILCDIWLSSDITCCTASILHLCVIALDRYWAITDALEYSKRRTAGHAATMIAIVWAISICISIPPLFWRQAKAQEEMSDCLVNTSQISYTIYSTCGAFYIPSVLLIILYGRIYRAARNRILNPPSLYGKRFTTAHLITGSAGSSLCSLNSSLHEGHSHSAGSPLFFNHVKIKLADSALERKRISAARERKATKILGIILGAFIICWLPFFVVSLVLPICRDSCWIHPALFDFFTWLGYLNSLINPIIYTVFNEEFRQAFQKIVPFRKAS

[4] = target: 5-hydroxytryptamine receptor 5A (Homo sapiens, UniProt P47898); experiment: Binding affinity towards cloned human 5-HT5A receptor was determined
[5] = target: 5-hydroxytryptamine receptor 2B (Homo sapiens, UniProt P41595); experiment: Binding affinity towards cloned human 5-hydroxytryptamine 2B receptor was determined
5-hydroxytryptamine receptor 2B, sequence (P41595 whole entry): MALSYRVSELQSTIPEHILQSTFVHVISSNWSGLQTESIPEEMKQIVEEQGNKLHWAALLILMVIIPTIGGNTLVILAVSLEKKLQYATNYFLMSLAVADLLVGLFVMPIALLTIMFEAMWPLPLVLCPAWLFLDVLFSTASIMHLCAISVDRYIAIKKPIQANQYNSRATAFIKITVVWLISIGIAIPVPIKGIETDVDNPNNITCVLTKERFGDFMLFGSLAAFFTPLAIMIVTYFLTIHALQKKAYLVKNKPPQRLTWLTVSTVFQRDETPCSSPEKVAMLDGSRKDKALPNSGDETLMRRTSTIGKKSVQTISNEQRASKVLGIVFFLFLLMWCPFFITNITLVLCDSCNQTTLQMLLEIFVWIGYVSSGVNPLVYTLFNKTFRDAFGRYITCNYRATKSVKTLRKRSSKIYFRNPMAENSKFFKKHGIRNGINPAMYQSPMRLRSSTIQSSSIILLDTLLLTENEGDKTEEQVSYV

[6] = target: Cytochrome P450 2C19 (Homo sapiens, UniProt P33261); experiment: Inhibition of human Cytochrome P450 2C19; type: ADME
Cytochrome P450 2C19, sequence (P33261 whole entry): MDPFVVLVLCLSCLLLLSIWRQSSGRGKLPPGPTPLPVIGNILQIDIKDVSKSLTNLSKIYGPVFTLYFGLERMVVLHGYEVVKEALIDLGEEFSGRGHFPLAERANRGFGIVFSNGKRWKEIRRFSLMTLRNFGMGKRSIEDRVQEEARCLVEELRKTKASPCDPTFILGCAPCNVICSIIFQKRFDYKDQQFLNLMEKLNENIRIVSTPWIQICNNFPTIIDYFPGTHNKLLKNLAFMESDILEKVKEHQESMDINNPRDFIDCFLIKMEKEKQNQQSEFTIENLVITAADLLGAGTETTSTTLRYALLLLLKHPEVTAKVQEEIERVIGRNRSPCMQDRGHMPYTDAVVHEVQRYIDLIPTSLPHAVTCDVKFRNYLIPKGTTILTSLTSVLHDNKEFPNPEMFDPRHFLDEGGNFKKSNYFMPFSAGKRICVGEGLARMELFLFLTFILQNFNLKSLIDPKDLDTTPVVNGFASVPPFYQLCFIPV

[7] = target: 5-hydroxytryptamine receptor 1E (Homo sapiens, UniProt P28566); experiment: Binding affinity towards cloned human 5-hydroxytryptamine 1E receptor was determined
5-hydroxytryptamine receptor 1E, sequence (P28566 whole entry): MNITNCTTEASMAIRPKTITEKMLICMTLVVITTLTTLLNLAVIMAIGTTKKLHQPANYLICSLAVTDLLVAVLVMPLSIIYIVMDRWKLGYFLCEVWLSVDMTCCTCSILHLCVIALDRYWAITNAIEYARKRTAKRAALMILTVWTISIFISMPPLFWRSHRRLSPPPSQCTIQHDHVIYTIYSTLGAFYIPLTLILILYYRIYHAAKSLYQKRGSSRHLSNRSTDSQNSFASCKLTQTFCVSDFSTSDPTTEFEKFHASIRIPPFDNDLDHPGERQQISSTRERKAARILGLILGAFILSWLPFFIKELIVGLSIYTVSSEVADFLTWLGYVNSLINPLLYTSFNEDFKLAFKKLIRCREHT

[8] = target: T1, 5-hydroxytryptamine receptor 1A (Homo sapiens, UniProt P08908); experiment: Binding affinity towards 5-hydroxytryptamine 1A receptor in human using [3H]8-OH-DPAT as radioligand
T1 sequence (P08908 whole entry): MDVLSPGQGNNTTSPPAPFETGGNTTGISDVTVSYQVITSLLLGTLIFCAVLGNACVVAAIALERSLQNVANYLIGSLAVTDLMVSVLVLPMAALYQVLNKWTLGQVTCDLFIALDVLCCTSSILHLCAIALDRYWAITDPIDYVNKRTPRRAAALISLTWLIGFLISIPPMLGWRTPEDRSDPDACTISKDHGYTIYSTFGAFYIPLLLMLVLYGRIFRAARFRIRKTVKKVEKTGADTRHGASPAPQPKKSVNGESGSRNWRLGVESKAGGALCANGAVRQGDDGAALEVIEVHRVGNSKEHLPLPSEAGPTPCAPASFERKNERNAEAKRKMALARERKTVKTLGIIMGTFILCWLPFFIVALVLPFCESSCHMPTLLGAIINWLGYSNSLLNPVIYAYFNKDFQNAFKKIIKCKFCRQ

[9] = target: Cytochrome P450 2C9 (Homo sapiens, UniProt P11712); experiment: Inhibition of human cytochrome P450 isoform 2C9; type: ADME
Cytochrome P450 2C9, sequence (P11712 whole entry, canonical isoform): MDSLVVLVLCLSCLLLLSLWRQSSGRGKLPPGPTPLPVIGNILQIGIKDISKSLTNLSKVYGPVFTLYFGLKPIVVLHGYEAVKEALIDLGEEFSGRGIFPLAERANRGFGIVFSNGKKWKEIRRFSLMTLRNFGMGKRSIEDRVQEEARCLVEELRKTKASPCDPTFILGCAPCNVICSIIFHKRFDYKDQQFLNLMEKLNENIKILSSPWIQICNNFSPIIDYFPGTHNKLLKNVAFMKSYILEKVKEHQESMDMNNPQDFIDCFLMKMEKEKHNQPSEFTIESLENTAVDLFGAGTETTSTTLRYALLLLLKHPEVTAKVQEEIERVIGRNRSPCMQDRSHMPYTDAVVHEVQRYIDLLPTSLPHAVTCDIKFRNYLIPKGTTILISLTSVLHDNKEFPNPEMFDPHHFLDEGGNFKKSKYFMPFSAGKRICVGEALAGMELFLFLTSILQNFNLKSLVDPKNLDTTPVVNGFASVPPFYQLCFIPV

[10] = target: T2, 5-hydroxytryptamine receptor 1F (Homo sapiens, UniProt P30939); experiment: Binding affinity towards cloned human 5-hydroxytryptamine 1F receptor was determined
T2 sequence (P30939 whole entry): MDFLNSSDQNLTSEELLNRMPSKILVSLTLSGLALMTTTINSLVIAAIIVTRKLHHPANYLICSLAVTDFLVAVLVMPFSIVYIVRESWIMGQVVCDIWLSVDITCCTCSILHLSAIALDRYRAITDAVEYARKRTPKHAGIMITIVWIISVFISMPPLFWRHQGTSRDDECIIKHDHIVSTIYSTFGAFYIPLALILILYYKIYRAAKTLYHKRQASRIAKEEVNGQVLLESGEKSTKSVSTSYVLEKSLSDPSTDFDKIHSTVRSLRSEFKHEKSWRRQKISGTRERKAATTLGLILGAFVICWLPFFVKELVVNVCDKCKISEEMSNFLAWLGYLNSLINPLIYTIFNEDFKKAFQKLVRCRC

[11] = target: Cytochrome P450 2D6 (Homo sapiens, UniProt P10635); experiment: Inhibition of human Cytochrome P450 2D6; type: ADME
[12] = target: T3, Cytochrome P450 1A2 (Homo sapiens, UniProt P05177); experiment: Inhibition of human Cytochrome P450 1A2; type: ADME
T3 sequence (P05177 whole entry): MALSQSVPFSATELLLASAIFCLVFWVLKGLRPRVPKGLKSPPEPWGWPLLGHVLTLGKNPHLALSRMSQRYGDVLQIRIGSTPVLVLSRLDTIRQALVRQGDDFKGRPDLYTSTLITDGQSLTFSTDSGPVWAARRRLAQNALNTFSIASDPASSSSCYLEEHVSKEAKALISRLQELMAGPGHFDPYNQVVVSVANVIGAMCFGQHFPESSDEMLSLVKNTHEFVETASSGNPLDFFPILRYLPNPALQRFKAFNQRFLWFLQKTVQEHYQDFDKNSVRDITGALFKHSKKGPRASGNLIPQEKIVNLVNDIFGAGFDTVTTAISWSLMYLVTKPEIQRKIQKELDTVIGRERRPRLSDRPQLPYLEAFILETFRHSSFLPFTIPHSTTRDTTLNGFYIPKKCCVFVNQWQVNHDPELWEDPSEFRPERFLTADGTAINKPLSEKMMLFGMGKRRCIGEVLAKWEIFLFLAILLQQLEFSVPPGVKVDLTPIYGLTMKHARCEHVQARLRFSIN

[13] = target: D(3) dopamine receptor (Homo sapiens, UniProt P35462); experiment: Binding affinity towards cloned human dopamine D3 receptor was determined
D(3) dopamine receptor, sequence (P35462 whole entry): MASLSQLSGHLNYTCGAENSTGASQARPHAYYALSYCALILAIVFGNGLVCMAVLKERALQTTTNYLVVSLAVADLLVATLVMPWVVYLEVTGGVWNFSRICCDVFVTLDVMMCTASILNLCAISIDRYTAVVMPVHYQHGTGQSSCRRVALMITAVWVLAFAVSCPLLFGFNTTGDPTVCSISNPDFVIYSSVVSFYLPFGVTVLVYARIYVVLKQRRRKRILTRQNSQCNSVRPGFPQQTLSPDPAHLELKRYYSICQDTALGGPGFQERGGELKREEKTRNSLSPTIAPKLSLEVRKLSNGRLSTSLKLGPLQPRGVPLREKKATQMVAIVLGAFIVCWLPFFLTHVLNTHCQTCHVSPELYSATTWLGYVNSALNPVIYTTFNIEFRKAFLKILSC

[14] = target: 5-hydroxytryptamine receptor 1B (Homo sapiens, UniProt P28222); experiment: Binding affinity towards cloned human 5-hydroxytryptamine 1B receptor was determined
5-hydroxytryptamine receptor 1B, sequence (P28222 whole entry): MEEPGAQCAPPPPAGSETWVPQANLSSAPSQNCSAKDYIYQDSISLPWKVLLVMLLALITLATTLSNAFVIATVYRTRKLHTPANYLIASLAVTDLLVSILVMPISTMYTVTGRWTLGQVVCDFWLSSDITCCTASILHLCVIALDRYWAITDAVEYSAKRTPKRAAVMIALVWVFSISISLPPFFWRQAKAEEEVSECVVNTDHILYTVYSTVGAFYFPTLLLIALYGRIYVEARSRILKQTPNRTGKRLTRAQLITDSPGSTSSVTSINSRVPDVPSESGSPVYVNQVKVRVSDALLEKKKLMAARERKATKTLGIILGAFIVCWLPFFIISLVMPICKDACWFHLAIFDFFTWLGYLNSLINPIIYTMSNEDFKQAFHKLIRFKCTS

[15] = target: T4, 5-hydroxytryptamine receptor 2C (Homo sapiens, UniProt P28335); experiment: Binding affinity towards cloned human 5-hydroxytryptamine 2C receptor was determined
T4 sequence (P28335 whole entry): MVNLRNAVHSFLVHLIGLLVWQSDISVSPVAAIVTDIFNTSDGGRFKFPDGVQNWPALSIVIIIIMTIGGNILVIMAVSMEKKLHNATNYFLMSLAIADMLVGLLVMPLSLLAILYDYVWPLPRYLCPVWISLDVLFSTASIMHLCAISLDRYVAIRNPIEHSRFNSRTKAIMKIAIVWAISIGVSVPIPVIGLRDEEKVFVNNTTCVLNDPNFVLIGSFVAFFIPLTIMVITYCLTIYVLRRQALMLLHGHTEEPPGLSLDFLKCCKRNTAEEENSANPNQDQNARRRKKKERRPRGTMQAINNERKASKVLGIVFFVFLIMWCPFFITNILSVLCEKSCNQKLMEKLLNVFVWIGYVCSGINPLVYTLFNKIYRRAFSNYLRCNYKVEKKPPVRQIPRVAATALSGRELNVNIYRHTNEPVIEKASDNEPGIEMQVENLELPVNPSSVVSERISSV

[16] = target: T5, D(4) dopamine receptor (Homo sapiens, UniProt P21917); experiment: Binding affinity towards cloned human dopamine D4 receptor was determined
T5 sequence (P21917 whole entry): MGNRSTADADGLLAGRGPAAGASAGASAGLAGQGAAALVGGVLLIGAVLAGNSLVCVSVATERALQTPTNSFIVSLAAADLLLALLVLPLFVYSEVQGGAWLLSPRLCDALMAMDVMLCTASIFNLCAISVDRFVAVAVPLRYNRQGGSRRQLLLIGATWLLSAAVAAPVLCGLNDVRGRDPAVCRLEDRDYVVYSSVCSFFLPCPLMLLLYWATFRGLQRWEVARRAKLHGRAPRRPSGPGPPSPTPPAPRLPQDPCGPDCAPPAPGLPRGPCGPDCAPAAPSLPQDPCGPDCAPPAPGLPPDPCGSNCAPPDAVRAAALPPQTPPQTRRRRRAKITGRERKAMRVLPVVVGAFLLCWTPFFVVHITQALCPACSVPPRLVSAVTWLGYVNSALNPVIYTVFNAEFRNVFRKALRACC

[17] = target: Cytochrome P450 3A4 (Homo sapiens, UniProt P08684); experiment: Inhibition of human Cytochrome P450 3A4; type: ADME
Cytochrome P450 3A4, sequence (P08684 whole entry): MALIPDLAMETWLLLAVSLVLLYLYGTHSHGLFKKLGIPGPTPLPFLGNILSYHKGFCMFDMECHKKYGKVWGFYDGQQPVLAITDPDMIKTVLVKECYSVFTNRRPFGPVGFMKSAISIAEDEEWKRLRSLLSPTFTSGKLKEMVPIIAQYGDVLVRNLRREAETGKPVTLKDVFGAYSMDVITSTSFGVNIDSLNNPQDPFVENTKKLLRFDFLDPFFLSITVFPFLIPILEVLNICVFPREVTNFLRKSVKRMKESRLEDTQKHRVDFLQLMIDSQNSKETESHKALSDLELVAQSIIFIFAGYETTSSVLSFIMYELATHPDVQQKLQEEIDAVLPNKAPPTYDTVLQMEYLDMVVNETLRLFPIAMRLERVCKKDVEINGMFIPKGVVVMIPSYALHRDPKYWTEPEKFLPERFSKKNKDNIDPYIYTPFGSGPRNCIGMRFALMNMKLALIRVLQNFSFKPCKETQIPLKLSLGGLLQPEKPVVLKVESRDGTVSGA

[18] = target: 5-hydroxytryptamine receptor 6 (Homo sapiens, UniProt P50406); experiment: Binding affinity towards human 5-hydroxytryptamine 6 receptor
5-hydroxytryptamine receptor 6, sequence (P50406 whole entry): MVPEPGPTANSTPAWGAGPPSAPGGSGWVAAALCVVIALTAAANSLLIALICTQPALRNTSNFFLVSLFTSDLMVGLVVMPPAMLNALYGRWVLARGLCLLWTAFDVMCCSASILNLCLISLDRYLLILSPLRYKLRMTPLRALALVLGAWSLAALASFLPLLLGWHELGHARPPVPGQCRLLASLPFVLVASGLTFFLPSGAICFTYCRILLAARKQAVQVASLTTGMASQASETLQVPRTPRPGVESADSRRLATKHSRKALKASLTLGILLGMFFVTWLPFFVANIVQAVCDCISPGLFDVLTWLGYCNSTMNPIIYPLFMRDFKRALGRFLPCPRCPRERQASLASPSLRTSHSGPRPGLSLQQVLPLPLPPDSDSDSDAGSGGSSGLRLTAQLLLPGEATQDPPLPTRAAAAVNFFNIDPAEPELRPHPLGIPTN

5-hydroxytryptamine receptor 2A, sequence (P28223 whole entry): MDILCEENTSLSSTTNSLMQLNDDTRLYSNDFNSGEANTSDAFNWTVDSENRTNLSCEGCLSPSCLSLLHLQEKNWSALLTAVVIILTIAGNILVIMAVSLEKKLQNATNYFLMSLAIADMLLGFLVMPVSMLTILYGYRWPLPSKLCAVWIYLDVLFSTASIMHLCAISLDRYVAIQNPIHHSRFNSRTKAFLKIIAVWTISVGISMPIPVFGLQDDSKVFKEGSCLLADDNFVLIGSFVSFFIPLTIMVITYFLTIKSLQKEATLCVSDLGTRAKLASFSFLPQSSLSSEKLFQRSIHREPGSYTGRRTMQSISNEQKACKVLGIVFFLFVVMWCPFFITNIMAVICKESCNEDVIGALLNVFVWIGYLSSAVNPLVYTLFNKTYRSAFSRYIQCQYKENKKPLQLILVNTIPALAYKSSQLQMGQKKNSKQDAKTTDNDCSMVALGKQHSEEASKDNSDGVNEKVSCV
5-hydroxytryptamine receptor 7, sequence (P34969 whole entry): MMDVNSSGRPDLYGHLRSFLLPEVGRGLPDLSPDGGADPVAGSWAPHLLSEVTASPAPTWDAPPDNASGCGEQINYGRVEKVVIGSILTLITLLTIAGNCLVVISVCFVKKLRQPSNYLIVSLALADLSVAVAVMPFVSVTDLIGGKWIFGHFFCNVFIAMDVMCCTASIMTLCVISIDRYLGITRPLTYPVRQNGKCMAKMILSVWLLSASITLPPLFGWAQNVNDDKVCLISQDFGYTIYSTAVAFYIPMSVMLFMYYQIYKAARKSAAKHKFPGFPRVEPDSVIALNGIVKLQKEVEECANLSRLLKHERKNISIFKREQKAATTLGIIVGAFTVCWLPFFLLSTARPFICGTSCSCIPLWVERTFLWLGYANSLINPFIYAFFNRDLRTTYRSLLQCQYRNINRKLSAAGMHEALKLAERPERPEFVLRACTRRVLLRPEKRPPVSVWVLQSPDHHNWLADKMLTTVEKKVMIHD

| SMILES | Ki [1] [nM] | Ki [2] [nM] | other results |
| --- | --- | --- | --- |
| O=C1c2ccccc2CCCN1CCN1CCC(c2c[nH]c3ccccc23)CC1 | 1.7 | 0.407 | – |
| Cc1ccccc1OC1CCN(CCC2CCCc3ccccc3C2=O)CC1 (stereo not given) | – | 11.2 | – |
| O=C1c2ccccc2CCCN1CCN1CCC(n2c(=O)oc3ccccc32)CC1 | 977 | 27.5 | – |
| O=C1c2ccccc2CCCN1CCN1CCC(n2c(O)nc3ccccc32)CC1 | > 1580 | 10.2 | – |
| O=C1c2ccccc2CCCN1CCN1CCC(n2c(=O)[nH]c3cc(F)ccc32)CC1 | 302 | 2.24 | Ki [3]: 2400 nM; Ki [4]: 1480 nM; Ki [5]: 1000 nM; IC50 [6]: > 100000 nM; Ki [7]: > 10000 nM; Ki [8]: 479 nM; IC50 [9]: 35000 nM; Ki [10]: > 10000 nM; IC50 [11]: 10000 nM; IC50 [12]: 62000 nM; Ki [13]: 1700 nM; Ki [14]: > 3980 nM; Ki [15]: 3310 nM; Ki [16]: 1230 nM; IC50 [17]: > 100000 nM; Ki [18]: > 5010 nM |
| O=C(c1ccc(Cl)cc1)C1CCN(CCN2CCCc3ccccc3C2=O)CC1 | 77.6 | 2.51 | – |
| O=C1c2ccccc2CCCN1CCN1CCC(Oc2ccc(F)cc2)CC1 | 31.6 | 4.47 | – |
| O=C1c2ccccc2CCCN1CCN1CCC(n2nnc3ccccc32)CC1 | 269 | 14.1 | – |
| O=C1c2ccccc2CCCN1CCN1CCC(Oc2ccc(Cl)cc2)CC1 | 74.1 | 11.7 | – |
| O=C1c2ccccc2CCCN1CCN1CCC(n2c(=O)oc3cc(F)ccc32)CC1 | 186 | 9.33 | – |
| O=C1c2ccccc2CCCN1CCN1CCC(n2nnc3cc(F)ccc32)CC1 | 49 | 2.04 | – |
| O=C1c2ccccc2CCCN1CCN1CCC(Oc2ccccc2)CC1 | 155 | 20.4 | – |
| O=C1c2ccccc2CCCC1CCN1CCC(Oc2ccccc2)CC1 (stereo not given) | – | 25.1 | – |
| O=C(c1ccc(F)cc1)C1CCN(CCN2CCCc3ccccc3C2=O)CC1 | 17 | 1.66 | – |
| O=C1CC(CN2CCC(Oc3ccccc3)CC2)CCc2ccccc21 (stereo not given) | – | 18.6 | – |
| Cc1ccc(OC2CCN(CCN3CCCc4ccccc4C3=O)CC2)cc1 | 55 | 9.12 | – |
| COc1ccccc1C1CCN(CC2CCc3ccccc3C(=O)C2)CC1 (stereo not given) | – | 11.2 | – |
| O=C1c2ccccc2CCCN1CCN1CCC(n2ccc3cc(F)ccc32)CC1 | 6.92 | 0.562 | – |
| O=C1c2ccccc2CCCN1CCN1CCC(n2ccc3ccccc32)CC1 | 19.5 | 2.75 | – |
